The supplement of paper PMC5579334
± gives the standard deviation of the averaged measurements.

What was measured:
[1] = tested on: HS-PSS; experiment: drug sensitivity score (DSS, CellTiter-Glo viability, 72 h) (DSS (dimensionless)); higher = more sensitive; extreme values may be limits of the assay
How it was run: (§1)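 MPNST cell lines and primary human Schwann cells (750–1000 cells per well) went into 384-well plates preprinted with each compound at five concentrations in 10-fold steps. Plates were incubated 72 h at 37 °C, 5% CO2. Viability was read as CellTiter-Glo ATP luminescence, scaled between vehicle and positive-control wells, with duplicates averaged where present. Percent inhibition is at the top concentration; drug sensitivity score and relative IC50 (censored at top concentration) come from four-parameter logistic fits.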

[2] = tested on: HS-Sch-2; experiment: as above
How it was run: as §1

[3] = tested on: HSC1 (primary human Schwann cells); experiment: as above
How it was run: as §1

[4] = tested on: HSC2 (primary human Schwann cells); experiment: as above
How it was run: as §1

[5] = tested on: S1507-2; experiment: as above
How it was run: as §1

[6] = tested on: S462; experiment: as above
How it was run: as §1

[7] = tested on: ST8814; experiment: as above
How it was run: as §1

[8] = tested on: STS26T; experiment: as above
How it was run: as §1

[9] = tested on: YST-1; experiment: as above
How it was run: as §1

[10] = tested on: HS-PSS; experiment: drug sensitivity score (DSS, CellTox-Green cytotoxicity, 72 h) (DSS (dimensionless)); higher = more cytotoxic; extreme values may be limits of the assay
How it was run: (§2)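 MPNST cell lines and primary human Schwann cells were incubated 72 h at 37 °C in 384-well plates holding five 10-fold compound dilutions. CellTox-Green was added before seeding at a final 1:1000 dilution and reported fluorescence from DNA released by disrupted cells. Signals were scaled to vehicle and positive-control wells, and cultures failing plate quality control were dropped. Drug sensitivity score and relative IC50 come from four-parameter logistic fits, with IC50 censored at the top concentration.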

[11] = tested on: HSC1 (primary human Schwann cells); experiment: as above
How it was run: as §2

[12] = tested on: HSC2 (primary human Schwann cells); experiment: as above
How it was run: as §2

[13] = tested on: S1507-2; experiment: as above
How it was run: as §2

[14] = tested on: ST8814; experiment: as above
How it was run: as §2

[15] = tested on: STS26T; experiment: as above
How it was run: as §2

[16] = tested on: HS-PSS; experiment: % inhibition of CellTiter-Glo viability at highest tested concentration (72 h), relative to DMSO and benzethonium chloride controls; higher = more inhibition
How it was run: as §1

[17] = tested on: HS-Sch-2; experiment: as above
How it was run: as §1

[18] = tested on: HSC1 (primary human Schwann cells); experiment: as above
How it was run: as §1

[19] = tested on: HSC2 (primary human Schwann cells); experiment: as above
How it was run: as §1

[20] = tested on: S1507-2; experiment: as above
How it was run: as §1

[21] = tested on: S462; experiment: as above
How it was run: as §1

[22] = tested on: ST8814; experiment: as above
How it was run: as §1

[23] = tested on: STS26T; experiment: as above
How it was run: as §1

[24] = tested on: YST-1; experiment: as above
How it was run: as §1

Structure (SMILES)	drug sensitivity score [1]	drug sensitivity score [2]	drug sensitivity score [3]	drug sensitivity score [4]	drug sensitivity score [5]	drug sensitivity score [6]	drug sensitivity score [7]	drug sensitivity score [8]	drug sensitivity score [9]	drug sensitivity score [10]	drug sensitivity score [11]	drug sensitivity score [12]	drug sensitivity score [13]	drug sensitivity score [14]	drug sensitivity score [15]	% inhibition [16] [%]	% inhibition [17] [%]	% inhibition [18] [%]	% inhibition [19] [%]	% inhibition [20] [%]	% inhibition [21] [%]	% inhibition [22] [%]	% inhibition [23] [%]	% inhibition [24] [%]
COc1cc2c(cc1O)CC[C@@H]1[C@@H]2CC[C@]2(C)[C@@H](O)CC[C@@H]12 [2-methoxyestradiol] (max concentration tested 10000 nM)	1.11	10.8	7.26	7.04	6.89 ± 0.4	12.8 ± 0.78	6.11	12.1	6.88	0	0.832	3.98	5.59 ± 1	5.07	11.6	26.6	84.4	66.2	66.6	82 ± 3.8	98.15 ± 0.87	91.9	99.8	75.8
CC/C(=C(\c1ccc(O)cc1)c1ccc(OCCN(C)C)cc1)c1ccccc1 [4-hydroxytamoxifen] (max concentration tested 10000 nM)	6.38	7.34	5.78	5.65	5.41 ± 1.5	3.82 ± 1.3	5.33	3.45	2.94	3.7	1.81	7.53	0.592 ± 0.84	4.88	1.86	88.4	93.4	72.5	82.5	55.9 ± 8.7	46.1 ± 9.7	75.7	53	32.7
Nc1ncnc2c1nc(N)n2[C@@H]1O[C@H](CO)[C@@H](O)[C@H]1O [8-amino-adenosine] (max concentration tested 50000 nM)	17.9	19.3	18.1	15.6	21.3 ± 0.37	20.2 ± 0.77	19.6	19.9	22.8	3.6	4.02	4.74	12.1 ± 6.4	14.7	16.9	101	102	98	96.7	99.405 ± 0.063	99.7 ± 0.63	98.4	100	102
Nc1ncnc2c1nc(Cl)n2[C@@H]1O[C@H](CO)[C@@H](O)[C@H]1O [8-chloro-adenosine] (max concentration tested 50000 nM)	5.54	11.1	9.38	9.83	12.4 ± 2.1	14.21 ± 0.085	9.48	12.3	12.9	0	0	0	1.46 ± 1.7	0.449	6.31	55.6	80	73.8	73.7	74 ± 0.56	82.1 ± 4.6	54.5	86.8	88.6
COc1cc(O)c2c(c1)/C=C/C[C@H](O)[C@H](O)C(=O)/C=C\C[C@H](C)OC2=O [(5Z)-7-Oxozeaenol] (max concentration tested 10000 nM)	1.02	2.24	6.52	7.92	3.4 ± 0.83	6.71 ± 1.1	7.1	6.93	1.67	0	0.659	1.01	2.79 ± 3	0.979	2.39	29.8	39.8	73.1	76.9	51.8 ± 16	74.1 ± 6.8	70.6	68.6	26.6
COc1ccc(S(=O)(=O)Nc2cccnc2Nc2ccc(O)cc2)cc1 [ABT-751] (max concentration tested 10000 nM)	3.98	14.3	12.3	13.5	14 ± 0.54	16.8 ± 0.83	15.1	16.3	10.8	0	7.1	12.9	11.9 ± 0.12	13.5	19	69	87.8	76.6	86	79.7 ± 4.9	96.52 ± 0.26	86	94.9	83.1
CNC(=O)c1ccc(N2C(=S)N(c3cnc(C#N)c(C(F)(F)F)c3)C(=O)C23CCC3)cc1F [ARN 509] (max concentration tested 10000 nM)	2.56	0	0	0	0	0	0	0	0	0	0	0	0.0953 ± 0.14	0	0.407	11.9	3.75	-4.96	-11.5	1.5 ± 14	5.15 ± 0.46	9.08	2.87	5.31
O=C(Nc1c[nH]nc1-c1nc2ccc(CN3CCOCC3)cc2[nH]1)NC1CC1 [AT9283] (max concentration tested 1000 nM)	3.34	4.99	10.7	10.5	10.9 ± 1.9	8.755 ± 0.034	13	5.9	6.27	0	4.98	5.2	8.28 ± 1.4	15.5	8.27	40.9	93.4	83.1	83	95.6 ± 4.4	84.48 ± 0.23	92.4	66.9	67.4
Cc1cc2c(C(C)C)c(O)c(O)c(C=O)c2c(O)c1-c1c(C)cc2c(C(C)C)c(O)c(O)c(C=O)c2c1O [AT 101] (max concentration tested 100000 nM)	9.43	15.1	16.2	20.2	8.69 ± 1.2	16 ± 1.1	12.6	11.8	15.2	2.34	4.09	0	0	0.0013	0	101	101	94.7	93.6	95.6 ± 1.6	95.03 ± 0.8	95.4	96.6	101
CN[C@@H](C)C(=O)N[C@H]1CN(C(=O)CC(C)C)CC[C@H]2CC[C@@H](C(=O)NC(c3ccccc3)c3ccccc3)N2C1=O [AT-406] (max concentration tested 10000 nM)	0.14	0	0	0	0.378 ± 0.28	0	0	12.4	0	0	0	0	13.1 ± 11	0	22.4	14.3	10.6	-7.18	-4.84	14.97 ± 0.11	3.84 ± 5.2	3.57	56	8.35
CC[C@H](CC#N)OC(=O)N[C@@H](C)c1cccc(NC(=O)Nc2ccc(-c3cnco3)c(OC)c2)c1 [AVN944] (max concentration tested 10000 nM)	12.5	8.71	18.7	20	8.48 ± 0.44	14.5 ± 1.5	11.4	12.2	16	0	0	0	0	7.26	0.427	69.4	60.8	71.2	76.8	54.6 ± 5.9	81.8 ± 2.8	78.7	74.3	89.7
COc1cc(OC2CCN(C)CC2)ccc1Nc1ncc2c(n1)n(C1CCCC1)c(=O)n2C [AZ 3146] (max concentration tested 10000 nM)	6.35	8.57	2.64	2.78	5.68 ± 1.6	9.91 ± 0.79	6.15	6.58	6.64	1.72	0	0.0952	2.07 ± 1.8	5.94	4.54	75.4	95.6	53.1	54.7	87.86 ± 0.87	82.8 ± 4.9	92.4	62.1	68.7
CCN(CCO)CCCOc1ccc2c(Nc3cc(CC(=O)Nc4cccc(F)c4)[nH]n3)ncnc2c1 [AZD1152-HQPA] (max concentration tested 1000 nM)	0.81	0	7.19	8.05	3.8464 ± 7.1e-05	8.6 ± 0.56	4.68	4.07	11.2	0	0	0.941	0	4.15	3.61	9.86	0.66	34.7	39.6	37.8 ± 7.3	35.8 ± 1.1	51.2	41.2	40.6
